The molecules below were run against T1, purified catalytic domain of recombinant human TACE (rhTACEc) (Homo sapiens, UniProt P78536, N452Q/S266A) (assay: TACE kinetic assay, cleavage of internally quenched fluorescent peptide substrate SPDL-3). Settings: not given.
T1 construct: rhTACEc, Residue 215 to 477 with two mutation (S266A and N452Q) and a 6xHis tail; 6xHis (C); made in house; host or cells: baculovirus/Hi5 insect cells
Type: biochemical
Experimental: TACE activity is determined by a kinetic assay measuring the rate of increase in fluorescent intensity generated by TACE catalyzed cleavage of an internally quenched peptide substrate (SPDL-3). […] It is purified from the baculovirus/Hi5 cells expression system using affinity chromatography. […] MCA is (7-Methoxycoumarin-4-yl)acetyl. Dpa is N-3-(2,4-Dinitrophenyl)-L-2,3-diaminopropionyl.
A 50 μl assay mixture contains 20 mM HEPES, pH 7.3, 5 mM CaCl2, 100 µM ZnCl2, 2% DMSO, 0.04% Methylcellulose, 30 μM SPDL-3, 70 pM rhTACEc and a test compound. RhTACEc is pre-incubated with the testing compound for 90 min. at 25° C. Reaction is started by addition of the substrate. […] Rate of enzymatic reaction is shown as Units per second. Effect of a test compound is shown as % of TACE activity in the absence of the compound.

T1 sequence (P78536 215-477 S266A/N452Q): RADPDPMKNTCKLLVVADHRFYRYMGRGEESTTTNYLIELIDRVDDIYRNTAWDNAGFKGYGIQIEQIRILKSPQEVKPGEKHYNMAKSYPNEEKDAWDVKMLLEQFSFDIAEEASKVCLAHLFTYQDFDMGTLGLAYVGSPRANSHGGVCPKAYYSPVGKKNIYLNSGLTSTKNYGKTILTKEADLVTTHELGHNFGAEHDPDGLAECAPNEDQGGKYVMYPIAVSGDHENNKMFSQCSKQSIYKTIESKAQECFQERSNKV

| Structure (SMILES) | Ki [nM] |
| --- | --- |
| COc1ccc2c(c1)C(=O)N(C[C@@]1(c3ccc(OC(=O)N(C)C)cc3)NC(=O)NC1=O)C2 [Compound 93] | < 10 |

Same assay, conditions: Specific TACE inhibitory activity of representative compounds; read-out: Ki

| Ki [nM] | Structure (SMILES) |
| --- | --- |
| 0.39 | COc1ccc2c(c1)C(=O)N(C[C@@]1(c3cc4cc(/C=N/O)ccc4o3)NC(=O)NC1=O)C2 [Compound 97] |
| 4 | CNC(=O)c1ccc(Oc2ccc([C@]3(CN4Cc5ccc(OC)cc5C4=O)NC(=O)NC3=O)cc2)cc1 [Compound 84] |
| 0.46 | COc1ccc2c(c1)C(=O)N(C[C@@]1(c3ccc(Oc4cccc(C(N)=O)c4)cc3)NC(=O)NC1=O)C2 [Compound 85] |

Same assay, conditions: TACE inhibition, Table 1; read-out: Ki Rating

| Structure (SMILES) | Ki [nM] |
| --- | --- |
| COc1ccc2c(c1)C(=O)N(CC1(CC(=O)NC3CCCCC3)NC(=O)NC1=O)C2 (stereo not drawn) [Compound 6] | 10 to 100 |
| COc1ccc2c(c1)C(=O)N(C[C@@]1(c3ccc(C#Cc4cccnc4)cc3)NC(=O)NC1=O)C2 [Compound 94] | < 10 |
| COc1ccc2c(c1)C(=O)N(CC1(CC(=O)NC(C)C)NC(=O)NC1=O)C2 (stereo not drawn) [Compound 7] | 10 to 100 |
| COc1ccc2c(c1)C(=O)N(C[C@@]1(c3cc4cc(/C=N/O)ccc4o3)NC(=O)NC1=O)C2 [Compound 97] | < 10 |
| COc1ccc2c(c1)C(=O)N(CC1(CC(=O)N3Cc4ccccc4C3)NC(=O)NC1=O)C2 (stereo not drawn) [Compound 17] | 10 to 100 |
| O=C1NC(=O)C(CN2Cc3c[nH]c(=O)cc3C2=O)(c2ccc(F)cc2)N1 (stereo not drawn) [Compound 29] | 10 to 100 |
| COc1ccc2c(c1)C(=O)N(CC1(CC(=O)N3CCc4ccccc4C3C3CC3)NC(=O)NC1=O)C2 (stereo not drawn) [Compound 15] | < 10 |
| COc1ccc2c(c1)C(=O)N(C[C@@]1(c3ccc(Oc4ccc(C(=O)NCCN(C)C)cc4)cc3)NC(=O)NC1=O)C2 [Compound 83] | < 10 |
| CNC(=O)c1ccc(Oc2ccc([C@]3(CN4Cc5ccc(OC)cc5C4=O)NC(=O)NC3=O)cc2)cc1 [Compound 84] | < 10 |
| COc1ccc2c(c1)CN(CC1(c3ccc(C#CCN(C)C)cc3)NC(=O)NC1=O)C2=O (stereo not drawn) [Compound 18] | < 10 |
| COc1ccc2c(c1)C(=O)N(C[C@@]1(c3ccc(Oc4cccc(C(=O)N(C)C)c4)cc3)NC(=O)NC1=O)C2 [Compound 88] | < 10 |
| COc1ccc2c(c1)C(=O)N(C[C@@]1(c3ccc(Oc4cccc(C(=O)N5CCOCC5)c4)cc3)NC(=O)NC1=O)C2 [Compound 87] | < 10 |
| COc1ccc2c(c1)C(=O)N(C[C@@]1(c3cc4cc(C#N)ccc4o3)NC(=O)NC1=O)C2 [Compound 102] | < 10 |
| CN(C)CC#Cc1ccc([C@]2(CN3Cc4ccc(O)cc4C3=O)NC(=O)NC2=O)cc1 [Compound 19] | 10 to 100 |

The next lines start with the values.

| Ki [nM] | Structure (SMILES) |
| --- | --- |
| < 10 | COc1ccc2c(c1)C(=O)N(C[C@@]1(c3ccc(-c4ccccc4C(N)=O)cc3)NC(=O)NC1=O)C2 [Compound 51] |
| < 10 | COc1ccc2c(c1)C(=O)N(C[C@@]1(c3ccc(-c4cnn(C)c4C#N)cc3)NC(=O)NC1=O)C2 [Compound 80] |
| < 10 | COc1ccc2c(c1)C(=O)N(C[C@@]1(c3ccc(-c4ncccc4C(=O)NC4CC4)cc3)NC(=O)NC1=O)C2 [Compound 62] |
| < 10 | COc1ccc2c(c1)C(=O)N(C[C@@]1(c3ccc(-c4cc(C#N)ccn4)cc3)NC(=O)NC1=O)C2 [Compound 73] |
| < 10 | CCOC(=O)c1n[nH]c2ccc(-c3ccc([C@]4(CN5Cc6ccc(OC)cc6C5=O)NC(=O)NC4=O)cc3)cc12 [Compound 77] |
| < 10 | COc1ccc2c(c1)C(=O)N(C[C@@]1(c3ccc(-c4ccc(S(N)(=O)=O)cc4)cc3)NC(=O)NC1=O)C2 [Compound 105] |
| 10 to 100 | COc1ccc2c(c1)C(=O)N(CC1(c3ccc(C(=O)N(C)C)cc3)NC(=O)NC1=O)C2 (stereo not drawn) [Compound 34] |
| < 10 | COc1ccc2c(c1)C(=O)N(C[C@@]1(c3ccc(-c4cc(C(N)=O)ccn4)cc3)NC(=O)NC1=O)C2 [Compound 59] |
| < 10 | COc1ccc2c(c1)C(=O)N(C[C@@]1(c3ccc(C(=O)O)cc3)NC(=O)NC1=O)C2 [Compound 100] |
| < 10 | COc1ccc2c(c1)C(=O)N(C[C@@]1(c3ccc(-c4ccnc(C(N)=O)c4)cc3)NC(=O)NC1=O)C2 [Compound 23] |
| < 10 | COc1ccc2c(c1)C(=O)N(C[C@@]1(c3ccc(Oc4cccc(C(N)=O)c4)cc3)NC(=O)NC1=O)C2 [Compound 85] |
| < 10 | CNC(=O)c1cccc(Oc2ccc([C@]3(CN4Cc5ccc(OC)cc5C4=O)NC(=O)NC3=O)cc2)c1 [Compound 89] |
| < 10 | COc1ccc2c(c1)C(=O)N(C[C@@]1(c3ccc(-c4cnc(C(=O)NC5CC5)cn4)cc3)NC(=O)NC1=O)C2 [Compound 71] |
| 10 to 100 | COc1ccc2c(c1)C(=O)N(C[C@]1(c3ccc(C#Cc4ccccn4)cc3)NC(=O)NC1=O)C2 [Compound 21] |
| < 10 | COc1ccc2c(c1)C(=O)N(C[C@@]1(c3ccc(-c4cccc(C#N)c4)cc3)NC(=O)NC1=O)C2 [Compound 81] |
| < 10 | COC(=O)c1cc(-c2ccc([C@]3(CN4Cc5ccc(OC)cc5C4=O)NC(=O)NC3=O)cc2)cnc1N [Compound 52] |
| < 10 | COc1ccc2c(c1)C(=O)N(C[C@@]1(c3ccc(-c4cc(C(=O)NC5CC5)ccn4)cc3)NC(=O)NC1=O)C2 [Compound 60] |
| 10 to 100 | COC(=O)c1ccc([C@@]2(CN3Cc4ccc(OC)cc4C3=O)NC(=O)NC2=O)cc1 [Compound 40] |
